Experimental data from the supplement of paper PMC13380429.

How the values were obtained:
Conditions in all cases: 72 h
HepG2 [1] = experiment: cell viability relative to DMSO; higher = less toxic
Vero E6 [2] = experiment: as above
Caco-2 [3] = experiment: as above
Calu-3 [4] = experiment: as above
U2OS [5] = experiment: as above
HepG2 [6] = experiment: relative viability EC50 (midpoint between 100% and the lowest measured viability); higher = less toxic
Vero E6 [7] = experiment: as above
Caco-2 [8] = experiment: as above
Calu-3 [9] = experiment: as above
U2OS [10] = experiment: as above
HepG2 [11] = experiment: drug sensitivity score (DSS) for viability; higher = more toxic; extreme values may be limits of the assay
Vero E6 [12] = experiment: as above
Caco-2 [13] = experiment: as above
Calu-3 [14] = experiment: as above
U2OS [15] = experiment: as above

SMILES | cell viability (HepG2 [1]; 1 nM) | cell viability (HepG2 [1]; 10 nM) | cell viability (HepG2 [1]; 100 nM) | cell viability (HepG2 [1]; 1000 nM) | cell viability (HepG2 [1]; 10000 nM) | cell viability (Vero E6 [2]; 1 nM) | cell viability (Vero E6 [2]; 10 nM) | cell viability (Vero E6 [2]; 100 nM) | cell viability (Vero E6 [2]; 1000 nM) | cell viability (Vero E6 [2]; 10000 nM) | cell viability (Caco-2 [3]; 1 nM) | cell viability (Caco-2 [3]; 10 nM) | cell viability (Caco-2 [3]; 100 nM) | cell viability (Caco-2 [3]; 1000 nM) | cell viability (Caco-2 [3]; 10000 nM) | cell viability (Calu-3 [4]; 1 nM) | cell viability (Calu-3 [4]; 10 nM) | cell viability (Calu-3 [4]; 100 nM) | cell viability (Calu-3 [4]; 1000 nM) | cell viability (Calu-3 [4]; 10000 nM) | cell viability (U2OS [5]; 1 nM) | cell viability (U2OS [5]; 10 nM) | cell viability (U2OS [5]; 100 nM) | cell viability (U2OS [5]; 1000 nM) | cell viability (U2OS [5]; 10000 nM) | relative viability EC50 (HepG2 [6]) | relative viability EC50 (Vero E6 [7]) | relative viability EC50 (Caco-2 [8]) | relative viability EC50 (Calu-3 [9]) | relative viability EC50 (U2OS [10]) | drug sensitivity score (HepG2 [11]) | drug sensitivity score (Vero E6 [12]) | drug sensitivity score (Caco-2 [13]) | drug sensitivity score (Calu-3 [14]) | drug sensitivity score (U2OS [15])
O=C(OCC(O)CO)c1ccccc1Nc1ccnc2c(C(F)(F)F)cccc12 (stereo not given) [floctafenine] | 101% | 106% | 107% | 105% | 92.2% | 98.3% | 107% | 95.4% | 101% | 104% | 92.2% | 90.2% | 95.9% | 92.5% | 96.9% | 108% | 98.5% | 95.9% | 98.7% | 81.1% | 101% | 99.4% | 100% | 98.5% | 93.4% | > 10 µM | > 10 µM | > 10 µM | > 10 µM | > 10 µM | 0 | 0 | 0 | 0.7 | 0
CC(C)C(=O)Nc1ccc([N+](=O)[O-])c(C(F)(F)F)c1 [flutamide] | 94.5% | 107% | 96.9% | 84.2% | 90.7% | 106% | 89.8% | 104% | 107% | 111% | 107% | 108% | 92.1% | 116% | 85.7% | 101% | 96.2% | 99.6% | 101% | 94.9% | 92% | 97.2% | 94.3% | 100% | 93.8% | > 10 µM | > 10 µM | > 10 µM | > 10 µM | > 10 µM | 2 | 0 | 0 | 0 | 0
COc1ccc(-c2coc3cc(O)ccc3c2=O)cc1 [formononetin] | 102% | 106% | 97.8% | 104% | 96.7% | 102% | 101% | 99.9% | 105% | 102% | 101% | 101% | 100% | 95.6% | 94.2% | 103% | 94.5% | 102% | 89.8% | 93.7% | 102% | 98% | 99.9% | 102% | 103% | > 10 µM | > 10 µM | > 10 µM | > 10 µM | > 10 µM | 0 | 0 | 0 | 0 | 0
COc1ccc(CCN(C)CCCC(C#N)(c2cc(OC)c(OC)c(OC)c2)C(C)C)cc1OC (stereo not given) [gallopamil] | 96.8% | 103% | 98.3% | 101% | 106% | 101% | 97.3% | 96.9% | 102% | 106% | 91.3% | 91.5% | 92.1% | 91.6% | 96% | 94.1% | 104% | 97% | 92.2% | 104% | 94% | 99.7% | 96.4% | 97.3% | 99.3% | > 10 µM | > 10 µM | > 10 µM | > 10 µM | > 10 µM | 0 | 0 | 0 | 0 | 0
OCc1ccc(O[C@@H]2O[C@H](CO)[C@@H](O)[C@H](O)[C@H]2O)cc1 [gastrodin] | 99.1% | 104% | 104% | 107% | 117% | 95.4% | 99.6% | 95.1% | 92.1% | 95.3% | 106% | 95.9% | 107% | 92% | 106% | 108% | 94.1% | 94.2% | 110% | 104% | 97.7% | 99.9% | 100% | 99.7% | 98.1% | > 10 µM | > 10 µM | > 10 µM | > 10 µM | > 10 µM | 0 | 0 | 0 | 0 | 0
Cc1cc(O)c2c(=O)c3c(O)cc(O)c4c5c(O)cc(O)c6c(=O)c7c(O)cc(C)c8c1c2c(c34)c(c78)c65 [hypericin] | 108% | 106% | 103% | 101% | 81.9% | 96.3% | 91.3% | 101% | 80.7% | 95.7% | 104% | 101% | 104% | 99.4% | 98.3% | 106% | 101% | 94% | 110% | 79.7% | 102% | 94.6% | 91.2% | 96.2% | 77.1% | > 10 µM | > 10 µM | > 10 µM | > 10 µM | > 10 µM | 0.4 | 0 | 0 | 0.3 | 1.4
